Results as given in ChEMBL document CHEMBL1201862, “PubChem BioAssay data set” (2004).
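Cells were grown in 96-well plates and exposed to each compound for 48 hours at five concentrations; endpoints were interpolated linearly between bracketing concentrations, or set to the highest concentration if not reached. GI50 is the concentration that inhibits growth by half.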 The source made the active and inactive calls. No stated cut-off is given here; in the data, active = GI50 up to about 1.1 µM and inactive = higher.

Experiments:
Experiment in all cases: NCI-60 cell line screen, 48 h
SF-295 = test system: SF-295
MDA-MB-231 = test system: MDA-MB-231
A498 = test system: A498
CAKI-1 = test system: CAKI-1
NCI-H23 = test system: NCI-H23
CCRF-CEM = test system: CCRF-CEM
UACC-62 = test system: UACC-62
NCI-H226 = test system: NCI-H226
MCF7 = test system: MCF7
MOLT-4 = test system: MOLT-4
SNB-19 = test system: SNB-19
A549 = test system: A549
SW-620 = test system: SW-620
PC-3 = test system: PC-3
NCI-H522 = test system: NCI-H522
OVCAR-5 = test system: OVCAR-5
HOP-92 = test system: HOP-92
T47D = test system: T47D
MDA-N = test system: MDA-N
HCC 2998 = test system: HCC 2998
OVCAR-3 = test system: OVCAR-3
SR = test system: SR
NCI/ADR-RES = test system: NCI/ADR-RES
SN12C = test system: SN12C
M14 = test system: M14
MDA-MB-435 = test system: MDA-MB-435
HL-60 = test system: HL-60
SK-OV-3 = test system: SK-OV-3
KM12 = test system: KM12
SF-268 = test system: SF-268
COLO 205 = test system: COLO 205
DU-145 = test system: DU-145
NCI-H460 = test system: NCI-H460
BT-549 = test system: BT-549
RXF 393 = test system: RXF 393
SF-539 = test system: SF-539
TK-10 = test system: TK-10
HOP-62 = test system: HOP-62
UACC-257 = test system: UACC-257
SK-MEL-5 = test system: SK-MEL-5
OVCAR-8 = test system: OVCAR-8
ACHN = test system: ACHN
U-251 = test system: U-251
SK-MEL-2 = test system: SK-MEL-2
HCT-15 = test system: HCT-15
RPMI-8226 = test system: RPMI-8226
SNB-75 = test system: SNB-75
HT-29 = test system: HT-29
HCT-116 = test system: HCT-116
786-0 = test system: 786-0
OVCAR-4 = test system: OVCAR-4
Hs-578T = test system: Hs-578T
LOX IMVI = test system: LOX IMVI
EKVX = test system: EKVX
SK-MEL-28 = test system: SK-MEL-28
UO-31 = test system: UO-31
K562 = test system: K562
IGROV-1 = test system: IGROV-1

Measured: GI50

Cc1cccc(/N=N/c2c(C)nn(C(=O)CC(=O)Nc3ccc(Cl)cc3)c2C)c1
inactive: SF-295 > 100 µM | MDA-MB-231 20.7 µM | A498 43.8 µM | CAKI-1 > 100 µM | NCI-H23 > 100 µM | CCRF-CEM 32.4 µM | UACC-62 > 100 µM | NCI-H226 20 µM | MCF7 > 100 µM | MOLT-4 36.6 µM | SNB-19 80.5 µM | A549 > 100 µM | SW-620 > 100 µM | PC-3 69 µM | NCI-H522 53.3 µM | OVCAR-5 45.6 µM | HOP-92 21 µM | T47D 64.3 µM | MDA-N 83.8 µM | HCC 2998 > 100 µM | OVCAR-3 82.4 µM | SR 20.8 µM | NCI/ADR-RES > 100 µM | SN12C > 100 µM | M14 48.3 µM | MDA-MB-435 > 100 µM | HL-60 36 µM | SK-OV-3 65.6 µM | KM12 > 100 µM | SF-268 55.2 µM | COLO 205 > 100 µM | DU-145 > 100 µM | NCI-H460 85.3 µM | BT-549 > 100 µM | RXF 393 48.1 µM | SF-539 > 100 µM | TK-10 > 100 µM | HOP-62 37.1 µM | UACC-257 > 100 µM | SK-MEL-5 > 100 µM | OVCAR-8 > 100 µM | ACHN 60.5 µM | U-251 61.5 µM | SK-MEL-2 67.5 µM | RPMI-8226 > 100 µM | SNB-75 9.51 µM | HT-29 > 100 µM | HCT-116 67.1 µM | 786-0 82 µM | OVCAR-4 > 100 µM | Hs-578T 23.8 µM | LOX IMVI 95.5 µM | EKVX 13.4 µM | SK-MEL-28 > 100 µM | UO-31 > 100 µM
47.8 µM: HCT-15

Nc1ccc2c(c1)C(=O)c1ccc(F)cc1-2
inactive: SF-295 > 100 µM | MDA-MB-231 > 100 µM | A498 > 100 µM | CAKI-1 > 100 µM | NCI-H23 > 100 µM | CCRF-CEM > 100 µM | UACC-62 > 100 µM | NCI-H226 > 100 µM | MCF7 > 100 µM | MOLT-4 57.8 µM | SNB-19 > 100 µM | A549 > 100 µM | SW-620 > 100 µM | PC-3 > 100 µM | NCI-H522 > 100 µM | OVCAR-5 > 100 µM | HOP-92 > 100 µM | T47D > 100 µM | MDA-N > 100 µM | HCC 2998 > 100 µM | OVCAR-3 > 100 µM | SR 87.1 µM | NCI/ADR-RES > 100 µM | SN12C > 100 µM | M14 > 100 µM | K562 > 100 µM | MDA-MB-435 > 100 µM | HL-60 > 100 µM | SK-OV-3 > 100 µM | KM12 > 100 µM | SF-268 > 100 µM | COLO 205 > 100 µM | IGROV-1 > 100 µM | DU-145 > 100 µM | NCI-H460 > 100 µM | BT-549 > 100 µM | RXF 393 44.4 µM | SF-539 > 100 µM | TK-10 > 100 µM | HOP-62 > 100 µM | UACC-257 > 100 µM | SK-MEL-5 > 100 µM | OVCAR-8 > 100 µM | ACHN > 100 µM | U-251 40.8 µM | SK-MEL-2 > 100 µM | RPMI-8226 > 100 µM | SNB-75 > 100 µM | HT-29 > 100 µM | HCT-116 88.5 µM | 786-0 > 100 µM | OVCAR-4 > 100 µM | Hs-578T > 100 µM | LOX IMVI > 100 µM | EKVX 72.4 µM | SK-MEL-28 > 100 µM | UO-31 > 100 µM
> 100 µM: HCT-15
